Results from article PMC9404985, “Development of Dicationic Bisguanidine-Arylfuran Derivatives as Potent Agents against Gram-Negative Bacteria” (Antibiotics, 2022).
pEC50: −log10 of the molar value. Where two headings read alike, the source gives them in different places.

How the values were obtained:
[1] = Cytotoxicity assay (PrestoBlue) HepG2; type: cell-based; conditions: human, HepG2 cells (hepatoma cell line), 24 h incubation
Procedure: The cytotoxicity levels of all compounds were evaluated against human Michigan Cancer Foundation-7 (MCF-7) and Hepatoma G2 cell line (HepG2) cell lines. MCF-7 is an extensively characterized breast cancer cell line isolated in 1970 [41], while HepG2 cells were derived from a hepatoma in 1975 [42]. Both cell lines grow robustly during in vitro culture and have been widely used for cytotoxicity testing. Cells of hepatic origin, such as HepG2, are of particular relevance for toxicity studies as many drugs accumulate in the liver during metabolic conversion. Cells were grown in Dulbecco’s Modified Eagle Medium supplemented with 10% fetal calf serum and kept in exponential growth, as previously reported. Before the assay, cells were reseeded into 96-well microtiter plates at a density allowing continued exponential growth and let to settle for 24 h. The compounds were added from a stock solution in DMSO, for a final concentration of 0.3% v/v of the solvent in the culture medium. After 24 h of incubation in presence of the compound, cell viability was assayed using PrestoBlue Cell Viability Reagent (resazurin-based solution, ThermoFisher, Waltham, MA, USA) according to the manufacturer’s instructions. […] Each assay contained a DMSO control at the equivalent starting concentration, positive control (uninhibited cell growth) and negative control (cell medium only). Survival was expressed as percentage of the solvent-only control. […] The Selectivity Index (SI) for each compound and bacterial strain was calculated as the ratio between the mean of the EC50 values for the two human cell lines and the EC50 for the bacterial strain in question ((EC50 MCF-7 + EC50 HepG2)/2)/EC50 bacterial strain).

[2] = tested on: K. pneumoniae (CCUG #58547); assay: Antibacterial activity against isolates (Omnilog, Biolog redox dye); type: cell-based, Klebsiella pneumoniae; conditions: for pEC50 / EC90: Klebsiella pneumoniae, CCUG58547, ca-MH broth, 24 h, 37 °C; for Selectivity index K. pneumoniae (CCUG #58547): SI = ((EC50 MCF-7 + EC50 HepG2)/2)/EC50 bacterial strain
Procedure: (§1) The antibacterial activities of eight compounds (1, 3, 4, 6, 8, 10, 16, and 17) were tested against 10 different isolates of Gram-negative bacteria from human and other sources, two E. coli (CCUG #67180 and CCUG #17620/ATCC #25922, control strain), two K. pneumoniae (CCUG #58547 and CCUG #225T), two P. aeruginosa (CCUG #17619 and CCUG #59347), two A. baumannii (CCUG #57035 and CCUG #57250), E. cloacae (CCUG #6323T), and E. hormaechei (CCUG #58962) in a 96-well plate format. […] Bacterial mass from the ten isolates grown overnight on horse blood or Mueller–Hinton agar plates was suspended in ca-MH and adjusted to a final inoculum cell density of ~5 × 10^5 CFU/mL. For all assays, Biolog redox dye A diluted 100× from the stock solution was used for measurements of all ten isolates (up to a total volume of 120 µL per well). All plates included one well per isolate with only inoculum and dye but no test compound (i.e., positive control) and one well per isolate with inoculum, dye and DMSO diluted 1667×, corresponding to the DMSO concentration in the wells with the highest concentration of test compound. All measurements were performed using the Omnilog microplate reader (Biolog, Hayward, CA, USA) where the 96-well plates were read at 15 min intervals for a total of 24 h at 37 °C.

[3] = tested on: K. pneumoniae (CCUG #225T); assay: as above; type: cell-based, Klebsiella pneumoniae; conditions: for pEC50 / EC90: Klebsiella pneumoniae, ca-MH broth, 24 h, 37 °C; for Selectivity index K. pneumoniae (CCUG #225T): SI = ((EC50 MCF-7 + EC50 HepG2)/2)/EC50 bacterial strain
Procedure: (§2) The antibacterial activities of eight compounds (1, 3, 4, 6, 8, 10, 16, and 17) were tested against 10 different isolates of Gram-negative bacteria from human and other sources, two E. coli (CCUG #67180 and CCUG #17620/ATCC #25922, control strain), two K. pneumoniae (CCUG #58547 and CCUG #225T), two P. aeruginosa (CCUG #17619 and CCUG #59347), two A. baumannii (CCUG #57035 and CCUG #57250), E. cloacae (CCUG #6323T), and E. hormaechei (CCUG #58962) in a 96-well plate format. The compounds to test were 3-fold diluted in six steps in cation-adjusted Mueller-Hinton (ca-MH) broth to final concentrations spanning from 30 to 0.12 µM, i.e., a 1667–416,667 times dilution from the 50 mM stocks. Bacterial mass from the ten isolates grown overnight on horse blood or Mueller–Hinton agar plates was suspended in ca-MH and adjusted to a final inoculum cell density of ~5 × 10^5 CFU/mL. For all assays, Biolog redox dye A diluted 100× from the stock solution was used for measurements of all ten isolates (up to a total volume of 120 µL per well). All plates included one well per isolate with only inoculum and dye but no test compound (i.e., positive control) and one well per isolate with inoculum, dye and DMSO diluted 1667×, corresponding to the DMSO concentration in the wells with the highest concentration of test compound. All measurements were performed using the Omnilog microplate reader (Biolog, Hayward, CA, USA) where the 96-well plates were read at 15 min intervals for a total of 24 h at 37 °C.

[4] = tested on: P. aeruginosa (CCUG #59347); assay: as above; type: cell-based, Pseudomonas aeruginosa; conditions: for pEC50 / EC90: Pseudomonas aeruginosa, CCUG59347, ca-MH broth, 24 h, 37 °C; for Selectivity index P. aeruginosa (CCUG #59347): SI = ((EC50 MCF-7 + EC50 HepG2)/2)/EC50 bacterial strain
Procedure: as §1

[5] = tested on: E. cloacae (CCUG #6323T); assay: as above; type: cell-based, Enterobacter cloacae; conditions: for pEC50 / EC90: Enterobacter cloacae, ca-MH broth, 24 h, 37 °C; for Selectivity index E. cloacae (CCUG #6323T): SI = ((EC50 MCF-7 + EC50 HepG2)/2)/EC50 bacterial strain
Procedure: as §2

[6] = tested on: B. subtilis (NBRC/ATCC #111470); assay: Antibacterial resazurin assay, laboratory strain; conditions: for pEC50 / EC90: Bacillus subtilis, ATCC111470, 18 h; for pEC50: read-out: Bsu EC50; for EC90: read-out: Bsu EC90; for Selectivity index B. subtilis: mean of MCF-7 and HepG2 EC50 over bacterial EC50, laboratory strain
[7] = tested on: E. coli MG1655 (CGSC #6300); assay: Antibacterial resazurin assay, laboratory strain; conditions: for pEC50 / EC90: Escherichia coli, MG1655, 18 h; for pEC50: read-out: Eco EC50; for EC90: read-out: Eco EC90; for Selectivity index E. coli: mean of MCF-7 and HepG2 EC50 over bacterial EC50, laboratory strain
[8] = tested on: P. putida (NBRC/ATCC #100650); assay: Antibacterial resazurin assay, laboratory strain; conditions: for EC90: read-out: Ppu EC90; for Selectivity index P. putida: mean of MCF-7 and HepG2 EC50 over bacterial EC50, laboratory strain
[9] = tested on: P. carotovorum (NBRC/ATCC #3380); assay: Antibacterial resazurin assay, laboratory strain; conditions: for EC90: read-out: Pcar EC90; for Selectivity index P. carotovorum: mean of MCF-7 and HepG2 EC50 over bacterial EC50, laboratory strain
[10] = Pseudomonas putida, ATCC100650, 18 h, read-out: Ppu EC50, laboratory strain, 18 h, 37 °C, AlamarBlue
[11] = Pseudomonas putida, ATCC100650, 18 h
[12] = Pectobacterium carotovorum, ATCC3380, 18 h, read-out: Pcar EC50, laboratory strain, 18 h, 37 °C, AlamarBlue
[13] = Pectobacterium carotovorum, ATCC3380, 18 h

SMILES: Cc1cc(NC(=N)N)ccc1-c1ccc(-c2ccc(NC(=N)N)cc2C)o1 [Compound 4, 2,5-Bis(4-guanidino-2-methylphenyl)furan]
- EC50 at 24 h [1]: 51.3 µM
- pEC50 [2]: 4.77
- EC90 [2]: 22.4 µM
- Selectivity index K. pneumoniae (CCUG #58547) [2]: 4.4
- pEC50 [3]: 4.82
- EC90 [3]: 22.7 µM
- Selectivity index K. pneumoniae (CCUG #225T) [3]: 4.9
- pEC50 [4]: 4.18
- EC90 [4]: 77 µM
- Selectivity index P. aeruginosa (CCUG #59347) [4]: 1.1
- pEC50 [5]: 5.43
- EC90 [5]: 7.4 µM
- Selectivity index E. cloacae (CCUG #6323T) [5]: 20.7
- pEC50 [6]: 5.21
- EC90 [6]: 8.5 µM
- Selectivity index B. subtilis [6]: 12.2
- pEC50 [7]: 4.31
- EC90 [7]: 80.8 µM
- Selectivity index E. coli [7]: 1.5
- pEC50 [8, 10]: ~4.84
- EC90 [8, 11]: 59.6 µM
- Selectivity index P. putida [8]: 5.2
- pEC50 ([8]; read-out: Ppu EC50, laboratory strain, 18 h, 37 °C, AlamarBlue): 4.84
- pEC50 [9, 12]: ~4.55
- EC90 [9, 13]: 37.3 µM
- Selectivity index P. carotovorum [9]: 2.6
- pEC50 ([9]; read-out: Pcar EC50, laboratory strain, 18 h, 37 °C, AlamarBlue): 4.54

SMILES: N=C(N)Nc1ccc(-c2ccc(-c3ccc(NC(=N)N)cc3Cl)o2)c(Cl)c1 [Compound 1, 2,5-Bis(2-chloro-4-guanidinophenyl)furan]
- EC50 at 24 h [1]: 43.4 µM
- pEC50 [2]: 5.28
- EC90 [2]: 8 µM
- Selectivity index K. pneumoniae (CCUG #58547) [2]: 7.5
- pEC50 [3]: 5.57
- EC90 [3]: 3.2 µM
- Selectivity index K. pneumoniae (CCUG #225T) [3]: 14.4
- pEC50 [4]: 5.28
- EC90 [4]: 7.4 µM
- Selectivity index P. aeruginosa (CCUG #59347) [4]: 7.3
- pEC50 [5]: 6.00
- EC90 [5]: 1.2 µM
- Selectivity index E. cloacae (CCUG #6323T) [5]: 37.2
- pEC50 [6]: 4.60
- EC90 [6]: 136 µM
- Selectivity index B. subtilis [6]: 1.5
- pEC50 [7]: 4.19
- EC90 [7]: 148 µM
- Selectivity index E. coli [7]: 0.6
- pEC50 [8, 10]: 3.59
- EC90 [8, 11]: 517 µM
- Selectivity index P. putida [8]: 0.2
- pEC50 [9, 12]: 4.17
- EC90 [9, 13]: 115 µM
- Selectivity index P. carotovorum [9]: 0.6

SMILES: N=C(N)Nc1ccc(-c2ccc(C(=O)N3CCc4cc(NC(=N)N)ccc43)o2)cc1 [Compound 17, (5-(4-guanidinophenyl)furan-2-yl)(5-guanidinoindolin-1-yl)methanone]
- EC50 at 24 h [1]: 239 µM
- pEC50 [2]: < 3.70
- EC90 [2]: > 200 µM
- pEC50 [3]: < 3.70
- EC90 [3]: > 200 µM
- pEC50 [4]: 4.77
- EC90 [4]: 23.9 µM
- Selectivity index P. aeruginosa (CCUG #59347) [4]: 11.4
- pEC50 [5]: 5.25
- EC90 [5]: 8.6 µM
- Selectivity index E. cloacae (CCUG #6323T) [5]: 34.8
- pEC50 [6]: < 3.52
- EC90 [6]: > 300 µM
- pEC50 [7]: 5.77
- EC90 [7]: 4.3 µM
- Selectivity index E. coli [7]: 114.3
- pEC50 [8, 10]: 4.13
- EC90 [8, 11]: 98 µM
- Selectivity index P. putida [8]: 2.6
- pEC50 [9, 12]: 3.89
- EC90 [9, 13]: 142 µM
- Selectivity index P. carotovorum [9]: 1.5

SMILES: N=C(N)Nc1ccc(-c2ccc(C(=O)N3CCc4cc(NC(=N)N)ccc43)o2)c(Cl)c1 [Compound 16, (5-(2-chloro-4-guanidinophenyl)furan-2-yl)(5-guanidinoindolin-1-yl)methanone]
- EC50 at 24 h [1]: 241 µM
- pEC50 [2]: 4.89
- EC90 [2]: 15.3 µM
- Selectivity index K. pneumoniae (CCUG #58547) [2]: 16.2
- pEC50 [3]: 5.01
- EC90 [3]: 12.2 µM
- Selectivity index K. pneumoniae (CCUG #225T) [3]: 21.4
- pEC50 [4]: 4.74
- EC90 [4]: 24 µM
- Selectivity index P. aeruginosa (CCUG #59347) [4]: 11.5
- pEC50 [5]: 5.46
- EC90 [5]: 7.9 µM
- Selectivity index E. cloacae (CCUG #6323T) [5]: 60.1
- pEC50 [6]: < 3.52
- EC90 [6]: > 300 µM
- pEC50 [7]: 4.88
- EC90 [7]: 19 µM
- Selectivity index E. coli [7]: 16.0
- pEC50 [8, 10]: 4.03
- EC90 [8, 11]: 147 µM
- Selectivity index P. putida [8]: 2.2
- pEC50 [9, 12]: 4.15
- EC90 [9, 13]: 80.7 µM
- Selectivity index P. carotovorum [9]: 2.9
